Tests used:
Format in all cases: cell-based, human
[1] = tested on: BPH-1 cells; assay: Cell viability by MTT assay in BPH-1 cells; conditions: BPH-1 cells, 48 h; for cell viability (number of viable cells): MTT
Protocol: (§1) Human benign prostate hyperplasia epithelial cells (BPH-1) were obtained from Dr. Simon W. Hayward (Vanderbilt University, Nashville, Tenn.) and malignant androgen-independent prostate cancer epithelial cells (PC-3) were obtained from American Type Tissue Collection (Manassas, Va.). Cells were grown and maintained in RPMI 1640 with glutamine (Mediatech, Inc., Herndon, Va.) supplemented with 5% (BPH-1) or 10% (PC-3) fetal bovine serum (Hyclone, Logan, Utah) and 1% penicillin-streptomycin (Mediatech, Inc., Herndon, Va.). All cell types were maintained in 5% CO2 at 37° C.
(§2) XN was isolated from hop cones as described previously (Stevens et al., J. Chromatogr. A 832 (1999) 97-107). Its oxidation product, xanthoaurenol (XAL), was prepared from xanthohumol (XN) by treatment with peroxynitrite. The structure of XAL was determined by mass spectrometry, NMR spectroscopy and X-ray diffraction analysis. Prenylflavonoids were dissolved in 100% methanol and were added to the culture medium at a final concentration of 2.5-200 μmol/L, depending on desired treatment. All treatments were done at approximately 50-70% confluency. As a control, methanol was added to culture medium equivalent to hop treatment.
(§3) Cells were seeded into 24-well plates (50,000 cells per well). After 24 h, cells were treated with either XN or XAL as described above. Cell viability was evaluated by MTT assay as described by Mossmann et al., J. Immunol. Methods 65 (1983) 55-63. Production of formazan product was detected in a Molecular Devices SpectraMax (Molecular Devices, Sunnyvale, Calif.) at 580 nm.

[2] = tested on: PC-3 cells; assay: Cell viability by MTT assay in PC-3 cells; conditions: PC3 cells, 48 h; for cell viability (number of viable cells): MTT
Protocol: as §1, §2, §3

[3] = tested on: BPH-1 cells; assay: Multicaspase assay (SR-VAD-FMK/7AAD flow cytometry) in BPH-1 cells; conditions: 48 h
Protocol: (§4) FIG. 3 sets forth data relating to xanthohumol and xanthoaurenol induction of caspase activity in BPH-1 and PC-3 cells. Cells were treated with XN or XAL for 48 h. Induction of apoptosis was measured using a multi-caspase assay. SR-VAD-FMK covalently binds caspases and positively stained cells were assessed by flow cytometry as a measure of caspase activation. 7-Amino-actinomycin D (7AAD), a nucleotide stain that only stains cells when membrane integrity is compromised, was used to differentiate between early and late apoptotic cells. SR-VAD-FMK(+) 7AAD(−) cells are undergoing early-mid apoptosis, […] late stage apoptotic cells. Values are mean±SD, n=3. *P<0.05, **P<0.01.
(§5) At various times after treatment with XN or XAL, adherent and floating cells were collected for analysis. Apoptosis was assessed using a flow cytometry based nexin and multicaspase assay kits (Guava Technologies, Burlingame, Calif.). The nexin assay is based on measurement of externalization of phosphatidyl serine, a common characteristic of cells undergoing apoptosis. The multicaspase assay is based on measurement of caspase enzymes activated during apoptosis. Cells were trypsinized, washed in D-PBS and stained with Annexin V, sulforhodamine-valyl-alanyl-aspartyl-fluoromethyl-ketone (SR-VAD-FMK), and 7-amino-actinomycin D (7AAD) according to the manufactures instructions. Cell populations were quantified using Guava personal cytometer (Guava Technologies, Burlingame, Calif.).

[4] = tested on: PC-3 cells; assay: Multicaspase assay (SR-VAD-FMK/7AAD flow cytometry) in PC-3 cells; conditions: 48 h
Protocol: as §4
as §5, with “Cells were trypsinized, washed in D-PBS and stained with Annexin V, sulforhodamine-valyl-alanyl-aspartyl-fluoromethyl-ketone (SR-VAD-FMK), and 7-amino-actinomycin D (7AAD) according to the manufactures instructions.” left out

[5] = tested on: BPH-1 cells; assay: Annexin V (nexin) apoptosis assay in BPH-1 cells; conditions: 20 μM
Protocol: FIG. 4 sets forth data relating to xanthohumol and xanthoaurenol induction of apoptosis in BPH-1 and PC-3 cells. Cells were treated with XN and XAL and apoptosis was detected using the Annexin V assay. Externalization of phosphatidyl serine, an early marker of apoptosis was detected by flow cytometry after staining with Annexin V-PE and 7AAD. Annexin V(+) 7AAD(−) cells are undergoing early apoptosis, and Annexin V(+) 7AAD(+) are undergoing late apoptosis. Values are mean±SD, n=3. *P<0.05, **P<0.01.
as §5

[6] = tested on: BPH-1 cells; assay: Cell cycle analysis (propidium iodide flow cytometry) in BPH-1 cells; conditions: for cell cycle modification: 10 and 20 μM
Protocol: At various time points after treatment with XN and XAL, adherent and floating cells were collected and fixed in 70% ethanol at one million cells per aliqout. Samples were centrifuged at 500×g, washed with PBS, and resuspended in cellular DNA staining solution containing […] propidium iodide (Sigma, St Louis, Mo.) and 100 μg/mL RNase (Sigma, St Louis, Mo.) in PBS. After 30-min incubation at room temperature, cell populations were quantified using Guava personal cytometer. Data analysis was performed using Multi Cycle software (Phoenix Flow Systems, San Diego, Calif.).
In Table 1, Cells were treated with 0, 10 or 20 μM XN or XAL, as indicated, and harvested after 48 h. Attached and floating cells were fixed in 70% ethanol and stained with propidium iodide, and cell cycle kinetics were examined using the Guava PCA, followed by data analysis with Multi-Cycle software.

[7] = tested on: NFκB; assay: NFκB activation, transcription factor binding ELISA, nuclear extracts of BPH-1 cells; conditions: 20 μM, 48 h
Protocol: (§6) FIG. 5 sets forth data relating to xanthohumol and xanthoaurenol inhibit NFκB activation in nuclear extracts of BPH-1 cells. Cells were treated with XN or XAL for 48 h. (A) Cells were harvested by scraping and then subjected to nuclear extraction. NFκB activation was determined using transcription factor binding ELISA as described in Section 2. Equal protein loading was confirmed using β-actin. Results are representative of two or more separate experiments. (B) BPH-1 cells were treated with XN or XAL for 48 h and detection of p65 nuclear protein was performed with immunoblotting methods. (C) No inhibition of NFκB activation in treated PC3 cells. Results are mean±SD, n=3. **P<0.01.
(§7) NFκB Activity was measured using Trans AM NFκB p65/p50 Transcription Factor Assay Kit (Active Motif, CA). Cytosolic and nuclear extracts were prepared from cells by using Nuclear Extraction Kit (Active Motif, Carlsbad, Calif.). Nuclear extract samples (10 μg) were added to a 96 well plate with immobilized oligonucleotide containing the NFκB consensus site (5′-GGGACTTTCC-3′). Sample wells were incubated with primary antibody specific for NFκB, followed by incubation with an HRP-conjugated secondary antibody, followed by quantification at OD 580 using a plate reader (Molecular Devices, Sunnyvale, Calif.).

[8] = tested on: NFκB; assay: NFκB activation, transcription factor binding ELISA, PC3 cells
Protocol: as §6, §7

[9] = tested on: pro-apoptotic proteins Bax and p53 and anti-apoptotic protein Bcl-2; assay: Western blot of Bax, p53 and Bcl-2 in whole cell lysates of BPH-1 cells; conditions: for expression of pro-apoptotic protein Bax / expression of pro-apoptotic protein p53: 10 and 20 μM; for expression of pro-apoptotic protein Bax / expression of pro-apoptotic protein p53 / expression of anti-apoptotic protein Bcl-2: 48 h
Protocol: FIG. 6 sets forth data relating to xanthohumol and xanthoaurenol induce expression of proapoptotic proteins p53 and bax, with down-regulation of antiapoptotic proteins bcl-2 in BPH-1 cells. Western blot of pro-apoptotic proteins Bax and p53 and anti-apoptotic protein Bcl-2 were performed from whole cell lysates of BPH-1 cells treated with XN and XAL for 48 h. Blots are representative of three individual experiments.
Cells were lysed in RIPA buffer and whole cell lysate protein concentrations were determined using a detergent-compatible protein assay (BioRad, CA). Proteins (15-35 μg) were separated by SDS-PAGE under standard conditions and were transferred to a nitrocellulose membrane (Biorad, CA) at 300 mA for 2 h. Antibody dilutions were as follows: Bax (BD Pharmingen, 1:500 dilution), Bcl-2 (Santa Cruz Biotechnology, 1:1000 dilution), p53 (Santa Cruz Biotechnology, 1:1000 dilution), NFκB p65 (Santa Cruz Biotechnology, 1:1000 dilution), actin (Sigma, 1:5000 dilution). Actin was used to confirm equal protein loading between samples. Protein was detected using chemiluminescence reagents (Pierce, Rockford, Ill.) with image analysis on Alpha Innotech photodocumentation system (Alpha Innotech, Hayward, Calif.).

[10] = tested on: NFκB p65; assay: Immunoblot of p65 nuclear protein in BPH-1 cells; conditions: 48 h
Protocol: as §6
Cells were lysed in RIPA buffer and whole cell lysate protein concentrations were determined using a detergent-compatible protein assay (BioRad, CA). Proteins (15-35 μg) were separated by SDS-PAGE under standard conditions and were transferred to a nitrocellulose membrane (Biorad, CA) at 300 mA for 2 h. […] Protein was detected using chemiluminescence reagents (Pierce, Rockford, Ill.) with image analysis on Alpha Innotech photodocumentation system (Alpha Innotech, Hayward, Calif.).

[11] = Cell viability by MTT assay in BPH-1 cells; conditions: human
Protocol: as §1, §2, §3

[12] = Cell viability by MTT assay in PC-3 cells; conditions: human
Protocol: as §1, §2, §3

Structure (SMILES): COc1cc(O)c(CC=C(C)C)c2c1C(=O)/C(=C/Oc1ccc(O)cc1)O2 [XAL, xanthoaurenol]
- cell viability (number of viable cells) [1]: dose-dependent decrease in number of viable
- viability decreased to ([1]; concentration of XAL not given): 81%
- cell viability (number of viable cells) [2]: dose-dependent decrease in number of viable
- viability decreased to ([2]; concentration of XAL not given): 55%
- SR-VAD-FMK(+) 7AAD(+) cells (late apoptosis) [3]: increase
- SR-VAD-FMK(+) 7AAD(−) cells (caspase activation, early to mid stage apoptosis) [3]: increase
- SR-VAD-FMK stained cells (caspase activation) [4]: increase only in late apoptotic SR-VAD-FMK(+) 7AAD(+) cells
- Annexin V(+) 7AAD(+) cells (late apoptosis) [5]: increase
- Annexin V(+) 7AAD(−) cells (early apoptosis) [5]: increase
- G1, percentage of cells in phase ([6]; 20 μM, 48 h, mean ± SE, n=3): 45.730 ± 1.376%
- cell cycle modification [6]: clear accumulation in the S phase
- decrease in NFκB activity [7]: 42%
- NFκB activation [8]: No inhibition
- expression of pro-apoptotic protein Bax [9]: Increase
- expression of pro-apoptotic protein p53 [9]: Increase
- expression of anti-apoptotic protein Bcl-2 [9]: decreased expression
- NFκB p65 protein levels in the nuclear fraction [10]: increased

Structure (SMILES): COc1cc(O)c(CC=C(C)C)c(O)c1C(=O)/C=C/c1ccc(O)cc1 [XN, xanthohumol]
- cytotoxicity at 48 h, 20 μM [11]: 80%
- cell viability (number of viable cells) [1]: dose-dependent decrease in number of viable
- cytotoxicity at 48 h, 20 μM [12]: 43%
- cell viability (number of viable cells) [2]: dose-dependent decrease in number of viable
- SR-VAD-FMK(+) 7AAD(+) cells (late apoptosis) [3]: increase
- SR-VAD-FMK(+) 7AAD(−) cells (caspase activation, early to mid stage apoptosis) [3]: increase
- SR-VAD-FMK stained cells (caspase activation) [4]: increase only in late apoptotic SR-VAD-FMK(+) 7AAD(+) cells
- Annexin V(+) 7AAD(+) cells (late apoptosis) [5]: increase
- Annexin V(+) 7AAD(−) cells (early apoptosis) [5]: increase
- cell cycle modification [6]: clear accumulation in the S phase
- decrease in NFκB activity [7]: 42%
- NFκB activation [8]: No inhibition
- increase in expression of Bax and p53 compared with XAL [9]: larger increase in expression of Bax and p53 than did treatment with XAL
- expression of pro-apoptotic protein Bax [9]: Increase
- expression of pro-apoptotic protein p53 [9]: Increase
- expression of anti-apoptotic protein Bcl-2 [9]: decreased expression
- NFκB p65 protein levels in the nuclear fraction [10]: increased

Structure (SMILES): O=C(O[C@@H]1Cc2c(O)cc(O)cc2O[C@@H]1c1cc(O)c(O)c(O)c1)c1cc(O)c(O)c(O)c1 [epigallocatechin gallate, reference compound]
- cell viability (number of viable cells) [1]: did not significantly decrease cell viability

Source: patent US20080233221A1, “Prostate cancer and benign prostatic hyperplasia treatments” (State of Oregon, priority 2007, published 2008)
